Results on eleven compounds are retold here after ChEMBL document CHEMBL1135210, “Succinimide hydroxamic acids as potent inhibitors of histone deacetylase (HDAC)” (Bioorg Med Chem Lett, 2002).

A short description of one experiment: cells. The format is functional. As to conditions: Homo sapiens, MDA435.
For another experiment, the target named is Histone deacetylase. The experiment in a line: Concentration required to inhibit Histone Deacetylase (HDAC) from K562 erythroleukemia cells. Format: cell-based, Homo sapiens.
Another experiment has as its system HT-1080. The experiment in a line: Concentration required for the antiproliferation of Human HT1080 fibrosarcoma cells. The format is functional, cell-based.

Where only a bound is given, the exact number is not on record here.

Description for cells: Concentration required for the antiproliferation of Human MDA-435 breast carcinoma cells

For `O=C(CCCCCNC(=O)[C@H](Cc1ccccc1)N1C(=O)CCC1=O)NO`, the concentration for half-maximal inhibition (IC50) in the experiment “cells” worked out at 10 µM; on Histone deacetylase, 0.66 µM; in the experiment on HT-1080, 14 µM.

On to `CC(C)C[C@@H]1CC(=O)N([C@@H](CC2CCCCC2)C(=O)NCCCCCC(=O)NO)C1=O`, for which the half-maximal inhibitory concentration (IC50) against Histone deacetylase worked out at 0.64 µM.

As for `CC(C)C[C@H]1C(=O)N2C[C@@H]1CCCCCOc1ccc(cc1)C[C@H]2C(=O)NCCCCCC(=O)NO`, the results for the IC50 in “cells”, against Histone deacetylase and in the experiment with HT-1080 were 0.15 µM, 0.038 µM and 0.25 µM, respectively.

As for `CNCC(=O)[C@@H](Cc1ccccc1)NC(=O)CCCCCCC(=O)NO`, the half-inhibitory concentration (IC50) against Histone deacetylase is 1.4 µM.

With `CC(C)C[C@@H]1CC(=O)N([C@@H](Cc2ccccc2)C(=O)NCCCCCC(=O)NO)C1=O`, the IC50 in “cells” was found to be 0.67 µM; on Histone deacetylase it was 0.099 µM; with HT-1080, 2.3 µM.

With `O=C(CCCCCNC(=O)[C@H](Cc1ccccc1)N1CCCC1=O)NO`, the IC50 against Histone deacetylase is more than 5 µM.

Take `CC(C)C[C@H]1C(=O)N([C@@H](Cc2ccccc2)C(=O)NCCCCCC(=O)NO)C(=O)C12CCCC2`: the 50% inhibitory concentration (IC50) was 0.7 µM in “cells”, 0.066 µM against Histone deacetylase and 1.5 µM in the experiment with HT-1080.

`CC(C)C[C@H]1CN[C@H](C(=O)NCCCCCC(=O)NO)Cc2ccc(cc2)OCCCCC[C@H]1C(=O)OC(C)(C)C`: the half-inhibitory concentration (IC50) against Histone deacetylase came to 0.0021 µM.

For `CCC[C@H]1C(=O)N([C@@H](Cc2ccccc2)C(=O)NCCCCCC(=O)NO)C(=O)[C@@H]1CC(C)C`, the IC50 is 0.57 µM in “cells”, 0.051 µM against Histone deacetylase and 0.4 µM in the experiment with HT-1080.

Consider `CCC[C@H]1C(=O)N([C@@H](Cc2ccc(OC)cc2)C(=O)NCCCCCC(=O)NO)C(=O)[C@@H]1CC(C)C`, for which the IC50 in the experiment “cells” was 0.18 µM; on Histone deacetylase, 0.038 µM; in the experiment with HT-1080 it was 0.53 µM.

For the compound `CC(C)C[C@@H]1CC(=O)N(CC(=O)NCCCCCC(=O)NO)C1=O`, the 50% inhibitory concentration (IC50) at Histone deacetylase came to 5 µM.

What is called IC50 is the concentration needed to halve the response being measured. A low value points to greater potency.
